Test results from ChEMBL document CHEMBL1208764, “Morroniside cinnamic acid conjugate as an anti-inflammatory agent” (Bioorg Med Chem Lett, 2010).
Activity calls are given as the source filed them. The rule behind the calls is not given here.

Experiments:
[1] = tested on: HUVEC; experiment: Cytotoxicity against HUVEC assessed as LDH release at 10-1000 ug/ml after 2 hrs; type: cell-based; conditions: human
[2] = tested on: HUVEC; experiment: Antiinflammatory activity in HUVEC assessed as inhibition of TNF-alpha-induced E-selection expression at 10-1000 ug/ml after 2 hrs by ELISA; type: functional, cell-based; conditions: Homo sapiens
[3] = tested on: HUVEC; experiment: Antiinflammatory activity in HUVEC assessed as inhibition of TNF-alpha-induced E-selection expression after 2 hrs by ELISA; type: functional, cell-based; conditions: Homo sapiens

Compound | Activity [1] | inhibition [2] | IC50 [3]
COC(=O)C1=CO[C@@H](O[C@@H]2O[C@H](CO)[C@@H](O)[C@H](O)[C@H]2O)[C@@H]2[C@H](C)O[C@@H](OC)C[C@H]12 | Non-toxic | inactive | 
C[C@]1(OC(=O)/C=C/c2ccccc2)C[C@@H](O)[C@]2(O)C=CO[C@@H](O[C@@H]3O[C@H](CO)[C@@H](O)[C@H](O)[C@H]3O)[C@@H]21 [HARPAGOSIDE] |  |  | 88.2 µM
COC(=O)C1=CO[C@@H](O[C@@H]2O[C@H](CO)[C@@H](O)[C@H](O)[C@H]2O)[C@@H]2[C@H](C)O[C@@H](O)C[C@H]12 [MORRONISIDE] | Non-toxic | inactive | 
